From patent publication US9192585B2, “Inhibitors of cognitive decline” (Cognition Therapeutics, Inc., priority 2009, dated 2015) come the findings set out here.

Series [1] deals with Abeta oligomer effects on membrane trafficking in primary rat neurons. Put plainly: Primary neuron-based functional screening assay, membrane trafficking (Example EE). The class given is cell-based. The settings on record: for block of Abeta oligomer effects (decrease of intracellular formazan-filled vesicles): added to cultures prior to oligomer addition, FIG. 2A. From the text:
Primary rat neurons grown for at least 3 weeks in vitro were chosen as the basis for this screening assay. […] More complex systems such as acute or organotypic brain slices are very useful but not amenable to high throughput screening. […] For this reason, primary neuronal cultures were chosen because of their ability to be used in high throughput screens and fidelity to what occurs in vivo.
The MTT assay can be used as a measure of toxicity in cultures. Yellow tetrazolium salts were endocytosed by cells and reduced to insoluble purple formazan in the endosomal pathway. The level of purple formazan was a reflection of the number of actively metabolizing cells in culture, and reduction in the amount of formazan was taken as a measure of cell death or metabolic toxicity in culture.
The exocytosis assay was adapted for use with mature primary neuronal cultures grown for 3 weeks in vitro.
Compounds were added to neurons first, then oligomers were added.
Data were the average of 3 experiments. Scale bar=20 micron in FIG. 2D.

Series [2] deals with Abeta oligomer-mediated memory deficits. As to the kind of experiment: Fear conditioning assay (Example FF). The class given is in vivo. The settings on record: mice. How it is done:
CT0109 was tested in an animal model of a memory-dependent behavioral task known as fear conditioning. The study protocol was designed based on published protocols (See e.g. Puzzo D, Privitera L, Leznik E, FàM, Staniszewski A, Palmeri A, Arancio O. Picomolar amyloid-beta positively modulates synaptic plasticity and memory in hippocampus. J Neurosci. 2008 Dec. 31; 28(53):14537-45). The formation of contextual memories is dependent upon the integrity of medial temporal lobe structures such as the hippocampus. In this assay mice were trained to remember that a particular salient context (conditioned stimulus; CS) is associated with an aversive event, in this case a mild foot shock (the unconditioned stimulus, US). Animals that show good learning will express an increase in freezing behavior when placed back into the same context. This freezing is absent in a novel context. Increased freezing in the context indicates strong hippocampal-dependent memory formation in animals. Memory tested in Fear Conditioning is sensitive to elevations of soluble Aβ. […] The fear condition model for memory was performed as described herein.

For series [3], the system named is Abeta oligomer-induced acceleration of exocytosis in primary neurons. Put plainly: Exocytosis assay/MTT assay (Example AA). The class given is cell-based. The settings on record: Rattus norvegicus, Primary neuron; 28 μM memantine, control; read-out: inhibition of oligomer effects. How it is done: Primary neurons from E18 Sprague-Dawley rat embryos are plated at optimized concentrations in 384 well plates in NB media (Invitrogen). Neurons are maintained in cultures for 3 weeks, with twice weekly feeding of NB media with N2 supplement (Invitrogen). A test compound is added to cells, followed by addition of Vehicle or Abeta oligomer preparations (1.5 μM), and incubated for 1 to 24 hr at 37° C. in 5% CO2. MTT reagent (3-(4,5-dimethylthiazol-2-yl)-2,5diphenyl tetrazolium bromide) (Roche Molecular Biochemicals) is reconstituted in phosphate buffered saline to 5 mg/mL. 10 μL of MTT labeling reagent is added to each well and incubated at 37° C. for 1 h, then imaged. […]
Optimal cell density is determined based on cellular response to Abeta oligomers using the exocytosis assay as a readout, and immunohistochemical analysis of the relative proportion of glia to neurons in the cultures. Cultures are monitored on a weekly basis with immunohistochemistry and image processing-based quantification to monitor the percentage of the cultures that are neurons vs. glia (Glial cells). […]
Human amyloid peptide 1-42 is obtained from California Peptide, with lot-choice contingent upon quality control analysis. […] Toxicity is monitored in each image-based assay via quantification of nuclear morphology visualized with the DNA binding dye DAPI (Invitrogen). […]

For orientation: EC50 means the concentration at which the effect is half-maximal. With `COc1cc(CCC(C)NCc2ccc(C(F)(F)F)cc2)ccc1O` (stereo not drawn) [CT0109, 4-(3-(4-(trifluoromethyl)benzylamino)butyl)-2-methoxyphenol], the EC50 in series [1] (Rattus norvegicus, Neuron, FIG. 2B, read-out: EC50, inhibition of oligomer effects on membrane trafficking) worked out at 7 µM. In series [2] (2 pmol dose + Abeta (200 nM), FIG. 3 bar d, p<0.05), the “block of oligomer-mediated memory deficits at 2 pmol dose” value is “completely blocked”. In addition, the “block of oligomer effects on memory” value in series [2] (administered prior to Abeta oligomer administration, across doses) is listed as “blocked oligomer effects on memory in a dose-dependent manner”. In series [2] (any dose), the adverse behavioral changes entry is listed as “No adverse behavioral changes”. The “effect of compound alone on memory” value in series [2] (without Abeta, data not shown) is given as “No effect”.

`C[C@]12N[C@H](Cc3ccccc31)c1ccccc12` [MK-801]: the “block of Abeta oligomer effects (decrease of intracellular formazan-filled vesicles)” value in series [1] was “none were active”.

One may read the inhibition as how much of the control response was suppressed. In the case of `CC12CC3CC(C)(C1)CC(N)(C3)C2` [Memantine, memantine], the inhibition at 28 µM in series [3] came out at 50%.

Take `C[N+](C)(C)CCCCCC[N+](C)(C)C` [hexamethonium bromide]: the “block of Abeta oligomer effects (decrease of intracellular formazan-filled vesicles)” value in series [1] is recorded as “none were active”.

For the compound `O[C@H]1[C@H](O)[C@@H](O)[C@H](O)[C@@H](O)[C@@H]1O` [scyllo-inositol], the “block of Abeta oligomer effects (decrease of intracellular formazan-filled vesicles)” value in series [1] was “none were active”.
